# Where a name gives a salt, the structure may show the parent alone.
# Molecular target: T1, protein farnesyltransferase (Rattus norvegicus, UniProt Q02293+Q04631)
# T1 construct: The enzyme is purified according to Reiss, Y., et al., Cell, 62: 81-88 (1990), utilizing steps one through three; from tissue; host or cells: rat brain
# Test: Inhibition of farnesyltransferase (scintillation proximity assay, rat brain enzyme, biotin-K Ras B fragment substrate)
# Type: biochemical
# Conditions: 1 × 10^-5 M (Table 1)
# Outline: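 Enzyme from rat brain, partly purified (steps one to three), assayed by SPA kit using 0.1 mM final biotin-K Ras B peptide as prenyl acceptor rather than biotin-lamin. Activity given as percent inhibition.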
# T1 sequence (Q02293 whole entry, one chain of several): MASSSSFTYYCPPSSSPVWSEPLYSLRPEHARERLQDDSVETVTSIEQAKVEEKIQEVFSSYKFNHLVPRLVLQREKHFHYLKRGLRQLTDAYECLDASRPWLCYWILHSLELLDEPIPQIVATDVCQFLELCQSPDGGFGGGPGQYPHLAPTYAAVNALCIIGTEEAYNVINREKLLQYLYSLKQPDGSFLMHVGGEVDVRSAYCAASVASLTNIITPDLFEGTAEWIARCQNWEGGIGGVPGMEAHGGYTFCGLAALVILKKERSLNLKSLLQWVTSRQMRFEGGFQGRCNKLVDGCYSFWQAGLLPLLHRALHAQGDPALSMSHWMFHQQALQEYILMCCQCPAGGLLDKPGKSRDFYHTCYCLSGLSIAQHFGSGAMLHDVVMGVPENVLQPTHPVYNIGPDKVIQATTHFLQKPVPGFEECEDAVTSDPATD
row,Molecule,% inhibition of farnesyltransferase at 1 × 10^-5 M
1,CSCC[C@H](NC(=O)c1ccc(CNCCC2CCCCC2)cc1-c1ccccc1)C(=O)O [Example 663],43%
2,COc1cc(I)c(C(=O)Nc2ccc(C(=O)N[C@@H](CCSC)C(=O)O)c(-c3ccccc3)c2)cc1OC [Example 756],47%
3,CSCC[C@H](NC(=O)c1ccc(CNc2ccc(C3CCCCC3)cc2)cc1-c1ccccc1)C(=O)O [Example 699],74%
4,CSCC[C@H](NC(=O)c1ccc(CNc2cc(C)cc(C)c2)cc1-c1ccccc1)C(=O)O [Example 709],55%

# Same assay, conditions: 1 × 10^-6 M (Table 2)
row,Molecule,% inhibition of farnesyltransferase at 1 × 10^-6 M
1,CCSC[C@H](CC1CCCCC1)NCc1ccc(C(=O)N[C@@H](CCSC)C(=O)OCOC(=O)C(C)(C)C)c(-c2ccccc2C)c1 [Example 764],88%
2,CSCC[C@H](NC(=O)c1ccc(OCCC23CC4CC(CC(C4)C2)C3)cc1-c1ccccc1C)C(=O)O [Example 553],92%
3,CSCC[C@H](NC(=O)c1ccc(NC(=O)C2=C(C(F)(F)F)C=CNC2)cc1-c1ccccc1)C(=O)O [Example 283],98%
4,CSCC[C@H](NC(=O)c1ccc(OC/C=C(\C)CC/C=C(\C)CCC=C(C)C)cc1-c1ccccc1C)C(=O)O [Example 547],91%
5,CSCC[C@H](NC(=O)c1ccc(CN[C@H](CO)Cc2ccccc2)cc1-c1ccccc1C)C(=O)O [Example 727],95%
6,CSCC[C@H](NC(=O)c1ccc(CN(Cc2ccccc2)Cc2ccccc2)cc1-c1ccccc1)C(=O)O [Example 834],55%
7,COc1ccc(CCOCc2ccc(C(=O)N[C@@H](CCSC)C(=O)O)c(-c3ccccc3C)c2)cc1 [Example 937],95%
8,CSCC[C@H](NC(=O)c1ccc(COC2CCN(C(=O)OC(C)(C)C)CC2)cc1-c1ccccc1C)C(=O)[O-].[Li+] [Example 808],88%
9,CSCC[C@H](NC(=O)c1ccc(OCCOc2ccccc2)cc1-c1ccccc1C)C(=O)O [Example 561],91%
10,CSCC[C@H](NC(=O)c1ccc(CNCc2ccc(N)cc2)cc1-c1ccccc1)C(=O)O [Example 653],62%
11,CSCC[C@H](NC(=O)c1ccc(CN(CCC#N)Cc2ccccc2)cc1-c1ccccc1)C(=O)O [Example 649],86%
12,CSCC[C@H](NC(=O)c1ccc(CNc2cccc(I)c2)cc1-c1ccccc1)C(=O)O [Example 677],37%
13,CSCC[C@H](NC(=O)c1ccc(OCCCc2ccccc2)cc1-c1ccccc1C)C(=O)[O-].[Li+] [Example 879],95%
14,CSCC[C@H](NC(=O)c1ccc(CSC2CCCCC2)cc1-c1ccccc1C)C(=O)[O-].[Li+] [Example 550],96%
15,CSCC[C@H](NC(=O)c1ccc(NC(=O)C2CCC(=O)N2)cc1-c1ccccc1)C(=O)O (stereo partly drawn) [Example 202],31%
16,CSCC[C@H](NC(=O)c1ccc(OCCC2CCCCC2)cc1-c1ccccc1C)C(=O)[O-].[Li+] [Example 552],88%
17,CSCC[C@H](NC(=O)c1ccc(CNc2ccc(-c3nc4ccccc4s3)cc2)cc1-c1ccccc1)C(=O)O [Example 703],40%
18,N-[4-(4-phenylcyclohexylidenyl)-2-(2-methylphenyl)benzoyl]methionine lithium salt [Example 789],86%
19,CSCC[C@H](NC(=O)c1ccc(CN(C)CCc2ccccc2)cc1-c1ccccc1C)C(=O)O [Example 516],95%

# Same assay, conditions: 1 × 10^-7 M (Table 3)
row,Molecule,% inhibition of farnesyltransferase at 1 × 10^-7 M
1,CCCCN(CCCC)C(=O)CN(C)Cc1ccc(C(=O)N[C@@H](CCSC)C(=O)O)c(-c2ccccc2C)c1 [Example 913],89%
2,CSCC[C@H](NC(=O)c1ccc(COCc2cncs2)cc1-c1ccccc1C)C(=O)[O-].[Li+] [Example 539],89%
3,CCSC[C@H](CC1CCCCC1)N(Cc1ccc(C(=O)N[C@@H](CCSC)C(=O)O)c(-c2ccccc2C)c1)C(=O)c1ccccc1 [Example 949],57%
4,CSCC[C@H](NC(=O)c1ccc(COCc2ccc(-c3ccccc3F)o2)cc1-c1ccccc1C)C(=O)[O-].[Li+] [Example 437],89%
5,N-[4-(2-fluoren-4-ylethyl)-2-(2-methylphenyl)benzoyl]methionine lithium salt [Example 464],86%
6,CCCCN(CCCC)C(=O)CNCc1ccc(C(=O)N[C@@H](CCSC)C(=O)O)c(-c2ccccc2C)c1 [Example 912],85%
7,CCSC[C@H](CC1CCCCC1)N(Cc1ccc(C(=O)N[C@@H](CCSC)C(=O)O)c(-c2ccccc2C)c1)C(C)=O [Example 947],79%
8,CSCC[C@H](NC(=O)c1ccc(COCCCCc2ccccc2)cc1-c1ccccc1C)C(=O)O [Example 601],92%

# Same assay, conditions: 1 × 10^-8 M (Table 4)
row,Molecule,% inhibition of farnesyltransferase at 1 × 10^-8 M
1,CSCC[C@H](NC(=O)c1ccc(CN(C)CCC2CCCCC2)cc1-c1ccccc1C)C(=O)[O-].[Li+] [Example 608],91%
2,COc1ccc(N(Cc2ccccc2)Cc2ccc(C(=O)N[C@@H](CCSC)C(=O)O)c(-c3ccccc3C)c2)cc1 [Example 840],73%
3,CCSC[C@H](CCc1ccccc1)NCc1ccc(C(=O)N[C@@H](CCSC)C(=O)O)c(-c2ccccc2C)c1 [Example 995],92%
4,CCCCC(Cc1ccccc1Cl)OCc1ccc(C(=O)N[C@@H](CCSC)C(=O)O)c(-c2ccccc2C)c1 (stereo partly drawn) [Example 943],79%
5,CSCC[C@H](NC(=O)c1ccc(CN(Cc2cncs2)C2CCSCC2)cc1-c1ccccc1C)C(=O)O [Example 881],69%

# Same assay, conditions: Table 6, * = 0.1 μM (footnote); title prints 0.1 mM
row,Molecule,% inhibition at 0.1 μM (*)
1,CCCCN(CCN1CCCCC1)Cc1ccc(C(=O)N[C@@H](CCSC)C(=O)O)c(-c2ccccc2C)c1 [Example 1196],87%

# Same assay, conditions: read-out: % inhibition at 0.01 μM (**); Table 6, ** = 0.01 μM (footnote); title prints 0.01 mM
row,Molecule,inhibition at 0.01 µM
1,"CSCC[C@H](NC(=O)c1ccc(CN2OCCC2COC2CCCCC2)cc1-c1ccccc1C)C(=O)O (stereo partly drawn) [Example 1130, N-[4-(3-cyclohexyloxymethylisoxazolidin-2-ylmethyl)-2-(2-methylphenyl)benzoyl]methionine]",88%

# Same assay, conditions: read-out: % inhibition at 0.1 μM (*); Table 6, * = 0.1 μM (footnote); title prints 0.1 mM
row,Molecule,inhibition at 0.1 µM
1,"CCCCP(=O)(CCCC)Cc1ccc(C(=O)N[C@@H](CCSC)C(=O)O)c(-c2ccccc2C)c1 [Example 1222, N-[4-(Dibutyl(oxophosphinyl)methyl)-2-(2-methylphenyl)benzoyl]methionine]",89%
2,"CSCC[C@H](NC(=O)c1ccc(CC(CCC2CCCCC2)C(=O)OC(C)(C)C)cc1-c1ccccc1C)C(=O)O (stereo partly drawn) [Example 1301, N-[4-(2-(2-cyclohexylethyl)t-butylpropion-3-yl)-2-(2-methylphenyl)benzoyl]methionine Lithium Salt]",97%

# Same assay, conditions: read-out: % inhibition of farnesyltransferase at 1 × 10^-6 M; 1 × 10^-6 M (Table 2)
row,Molecule,inhibition at 1 µM
1,"CSCC[C@H](NC(=O)c1ccc(S(=O)(=O)NC2CCN(Cc3ccccc3)CC2)cc1-c1ccccc1C)C(=O)O [Example 773, lithium salt]",41%
2,Cc1ccccc1-c1cc(CN(C)C(C)(C)Cc2ccccc2)ccc1C(=O)N[C@@H](CCS(C)(=O)=O)C(=O)O [Example 313],94%
3,"CSCC[C@H](NC(=O)c1ccc(CCCCC2CCCCC2)cc1-c1ccccc1C)C(=O)O [Example 478, N-[4-(4-cyclohexylbutyl)-2-(2-methyphenyl)benzoyl]methionine sodium salt]",98%
4,CSCC[C@H](NC(=O)c1ccc(CN(C(C)C)C2(Cc3ccccc3)CCCC2)cc1-c1ccccc1C)C(=O)O [Example 343],72%
5,CSCC[C@H](NC(=O)c1ccc(CN(C(C)C)C2(CC3CCCCC3)CCC2)cc1-c1ccccc1C)C(=O)O [Example 332],26%
6,"CSCC[C@H](NC(=O)c1ccc(CCc2cnc(Oc3ccccc3)cn2)cc1-c1ccccc1C)C(=O)O [Example 813, lithium salt]",95%
7,"CSCC[C@H](NC(=O)c1ccc(C=CCc2ccc3ccccc3c2)cc1-c1ccccc1C)C(=O)O (mixture of isomers) [Example 496, N-[4-(3-naphth-2-ylprop-1-enyl)-2-(2-methylphenyl)benzoyl]methionine lithium salt (1:1 mixture of olefin isomers)]",93%
8,"CSCC[C@H](NC(=O)c1ccc(CN2C(=O)OC[C@@H]2CC2CCCCC2)cc1-c1ccccc1C)C(=O)O [Example 349, [4-(5-cyclohexylmethyloxazolid-2-on-1-ylmethyl)-2-(2-methylphenyl)benzoyl]methionine]",99%

# Same assay, conditions: read-out: % inhibition of farnesyltransferase at 1 × 10^-7 M; 1 × 10^-7 M (Table 3)
row,Molecule,inhibition at 0.1 µM
1,"CSCC[C@H](NC(=O)c1ccc(CCc2ccc(C3CCCCC3)cc2)cc1-c1ccccc1C)C(=O)O [Example 461, N-[4-(2-(4-cyclohexylphenyl)ethyl)-2-(2-methylphenyl)benzoyl]methionine lithium salt]",93%
2,"CSCC[C@H](NC(=O)c1ccc(CCc2ccc(Oc3ccccc3Cl)cc2)cc1-c1ccccc1C)C(=O)O [Example 855, N-[4-(2-(4-(2-chlorophenoxy)phenyl)ethyl)-2-(2-methylphenyl)benzoyl]methionine]",92%
3,"CSCC[C@H](NC(=O)c1ccc(CCc2ccc(Oc3ccccc3N)cc2)cc1-c1ccccc1C)C(=O)O [Example 857, N-[4-(2-(4-(2-aminophenoxy)phenyl)ethyl)-2-(2-methylphenyl)benzoyl]methionine]",92%

# Source: patent US6221865A, “Inhibitors of protein isoprenyl transferases” (priority 1998, dated 2001)
